Activity calls are given as the source filed them. No cut-off for these calls is given here. Residues, ends and D or L forms follow the SMILES beside them. *: point of attachment. βNA = c1ccc2cc(N*)ccc2c1
Experiments:
Escherichia coli K-12 [1] = assay: Inhibition of acrAB AcrAB-TolC-mediated Nile Red efflux in marR mutant containing Escherichia coli K-12 3-AG102 overexpressing acrAB AcrAB-TolC assessed as time needed for 50% efflux after energization with 50 mM glucose at 1000 uM by spectrofluorometric assay
Escherichia coli K-12 [2] = assay: Inhibition of acrAB AcrAB-TolC in Escherichia coli K-12 3-AG100 overexpressing acrAB AcrAB-TolC assessed as [3H]TMG accumulation at 200 uM by scintillation counter method
Escherichia coli K-12 [3] = assay: Inhibition of acrAB AcrAB-TolC-mediated Nile Red efflux in marR mutant containing Escherichia coli K-12 3-AG102 overexpressing acrAB AcrAB-TolC assessed as time needed for 50% efflux after energization with 50 mM glucose at 200 uM by spectrofluorometric assay
Escherichia coli K-12 [4] = assay: Inhibition of acrAB AcrAB-TolC in Escherichia coli K-12 3-AG100 overexpressing acrAB AcrAB-TolC assessed as [3H]TMG accumulation at 800 uM by scintillation counter method
Escherichia coli K-12 [5] = assay: Inhibition of acrAB AcrAB-TolC-mediated Nile Red efflux in Escherichia coli K-12 3-AG100 overexpressing acrAB AcrAB-TolC assessed as time needed for 50% efflux after energization with 50 mM glucose upto 2 mM by spectrofluorometric assay
Escherichia coli K-12 [6] = assay: Inhibition of acrAB AcrAB-TolC in Escherichia coli K-12 3-AG100 overexpressing acrAB AcrAB-TolC assessed as [3H]TMG accumulation at 100 uM by scintillation counter method
Escherichia coli K-12 [7] = assay: Inhibition of acrAB AcrAB-TolC-mediated Nile Red efflux in Escherichia coli K-12 3-AG100 overexpressing acrAB AcrAB-TolC assessed as time needed for 50% efflux after energization with 50 mM glucose at 100 uM by spectrofluorometric assay
Escherichia coli K-12 [8] = assay: Inhibition of acrAB AcrAB-TolC-mediated Nile Red efflux in Escherichia coli K-12 3-AG100 overexpressing acrAB AcrAB-TolC assessed as time needed for 50% efflux after energization with 50 mM glucose by spectrofluorometric assay
Escherichia coli K-12 [9] = assay: Inhibition of acrAB AcrAB-TolC-mediated Nile Red efflux in Escherichia coli K-12 3-AG100 overexpressing acrAB AcrAB-TolC assessed as time needed for 50% efflux after energization with 50 mM glucose at 800 uM by spectrofluorometric assay

Compound | TIME (Escherichia coli K-12 [1]) [h] | TIME (Escherichia coli K-12 [3]) [h] | inhibition (Escherichia coli K-12 [4]) [%] | further results
CN(C)c1ccc(O)c2c1C[C@H]1C[C@H]3[C@H](N(C)C)C(O)=C(C(N)=O)C(=O)[C@@]3(O)C(O)=C1C2=O | > 0.0556 | > 0.0556 |  | inhibition (Escherichia coli K-12 [2]): 45%
c1ccc([P+](c2ccccc2)(c2ccccc2)c2ccccc2)cc1 | > 0.0556 | 0.0292 | 97 | 
CN(C)[C@@H]1C(O)=C(C(N)=O)C(=O)[C@@]2(O)C(O)=C3C(=O)c4c(O)ccc(Cl)c4[C@@](C)(O)[C@H]3C[C@@H]12 | > 0.0556 | 0.0556 |  | inhibition (Escherichia coli K-12 [2]): 14%
CC[C@H]1OC(=O)[C@H](C)[C@@H](O[C@H]2C[C@@](C)(OC)[C@@H](O)[C@H](C)O2)[C@H](C)[C@@H](O[C@@H]2O[C@H](C)C[C@H](N(C)C)[C@H]2O)[C@](C)(O)C[C@@H](C)C(=O)[C@H](C)[C@@H](O)[C@]1(C)O |  |  |  | inhibition (Escherichia coli K-12 [5]): inactive
C[C@H]1c2cccc(O)c2C(=O)C2=C(O)[C@]3(O)C(=O)C(C(N)=O)=C(O)[C@@H](N(C)C)[C@@H]3[C@@H](O)[C@@H]21 | > 0.0556 | 0.0472 | 44 | 
CC(=O)NC[C@H]1CN(c2ccc(N3CCOCC3)c(F)c2)C(=O)O1 |  |  |  | inhibition (Escherichia coli K-12 [5]): inactive
N=C(N)NCCC[C@H](NC(=O)[C@@H](N)Cc1ccccc1)C(=O)Nc1ccc2ccccc2c1 (H-Phe-Arg-βNA) |  |  |  | inhibition (Escherichia coli K-12 [6]): 60%; inhibition (Escherichia coli K-12 [7]): Active; inhibition (Escherichia coli K-12 [8]): Dose-dependent effect
CN(C)[C@@H]1C(O)=C(C(N)=O)C(=O)[C@@]2(O)C(O)=C3C(=O)c4c(O)cccc4[C@@](C)(O)[C@H]3C[C@@H]12 | > 0.0556 | 0.025 | 27 | 
COc1cccc2c1C(=O)c1c(O)c3c(c(O)c1C2=O)C[C@@](O)(C(=O)CO)C[C@@H]3O[C@H]1C[C@H](N)[C@H](O)[C@H](C)O1 | > 0.0556 | > 0.0556 |  | inhibition (Escherichia coli K-12 [6]): 78%
N#CC(C#N)=NNc1cccc(Cl)c1 |  |  |  | inhibition (Escherichia coli K-12 [2]): 4.5%
c1ccc2c(CN3CCNCC3)cccc2c1 | > 0.0556 | 0.0278 | 53 | inhibition (Escherichia coli K-12 [9]): Active; inhibition (Escherichia coli K-12 [8]): Dose-dependent effect

— ChEMBL document CHEMBL1671720, “Optimized Nile Red efflux assay of AcrAB-TolC multidrug efflux system shows competition between substrates” (Antimicrob Agents Chemother, 2010)
